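Five concentrations, 48 hours, 96-well plates. At the TGI there is no net growth.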
Tests used:
Experiment in all cases: NCI tumour cell line growth inhibition, 48 h
SK-MEL-5 melanoma = system: SK-MEL-5 melanoma
HL-60(TB) leukemia = system: HL-60(TB) leukemia
NCI/ADR-RES ovarian = system: NCI/ADR-RES ovarian
OVCAR-4 ovarian = system: OVCAR-4 ovarian
M19-MEL melanoma = system: M19-MEL melanoma
XF 498 CNS = system: XF 498 CNS
IGROV1 ovarian = system: IGROV1 ovarian
A549 NSCLC = system: A549 NSCLC
LOX IMVI melanoma = system: LOX IMVI melanoma
KM12 colon = system: KM12 colon
MOLT-4 leukemia = system: MOLT-4 leukemia
DMS 114 small cell lung = system: DMS 114 small cell lung
HCT-116 colon = system: HCT-116 colon
RXF 393 renal = system: RXF 393 renal
MCF7 breast = system: MCF7 breast
SK-MEL-28 melanoma = system: SK-MEL-28 melanoma
P388 leukemia = system: P388 leukemia
RPMI-8226 leukemia = system: RPMI-8226 leukemia
HOP-92 NSCLC = system: HOP-92 NSCLC
SF-268 CNS = system: SF-268 CNS
NCI-H522 lung = system: NCI-H522 lung
UACC-62 melanoma = system: UACC-62 melanoma
U251 CNS = system: U251 CNS
HT29 colon = system: HT29 colon
OVCAR-8 ovarian = system: OVCAR-8 ovarian
HCT-15 colon = system: HCT-15 colon
UACC-257 melanoma = system: UACC-257 melanoma
SNB-78 CNS = system: SNB-78 CNS
SF-295 CNS = system: SF-295 CNS
EKVX NSCLC = system: EKVX NSCLC
SN12K1 renal = system: SN12K1 renal
SNB-19 CNS = system: SNB-19 CNS
DLD-1 colon = system: DLD-1 colon
SNB-75 CNS = system: SNB-75 CNS
SW-620 colon = system: SW-620 colon
SK-MEL-2 melanoma = system: SK-MEL-2 melanoma
NCI-H23 lung = system: NCI-H23 lung
OVCAR-3 ovarian = system: OVCAR-3 ovarian
SF-539 CNS = system: SF-539 CNS
SN12C renal = system: SN12C renal
CAKI-1 renal = system: CAKI-1 renal
HCC-2998 colon = system: HCC-2998 colon
A498 renal = system: A498 renal
HOP-18 NSCLC = system: HOP-18 NSCLC
DMS 273 small cell lung = system: DMS 273 small cell lung
MALME-3M melanoma = system: MALME-3M melanoma
P388/ADR leukemia = system: P388/ADR leukemia
HOP-62 NSCLC = system: HOP-62 NSCLC
CCRF-CEM leukemia = system: CCRF-CEM leukemia
COLO 205 colon = system: COLO 205 colon
OVCAR-5 ovarian = system: OVCAR-5 ovarian
KM20L2 colon = system: KM20L2 colon
NCI-H460 lung = system: NCI-H460 lung
SK-OV-3 ovarian = system: SK-OV-3 ovarian
NCI-H226 lung = system: NCI-H226 lung
UO-31 renal = system: UO-31 renal
K-562 leukemia = system: K-562 leukemia

Work on `Cc1nc2ccccc2c(=O)n1CC(=O)O` yielded a TGI (SK-MEL-5 melanoma) of over 100 µM, a TGI (HL-60(TB) leukemia) of over 100 µM and a TGI (NCI/ADR-RES ovarian) of over 100 µM. For the same molecule, the TGI (OVCAR-4 ovarian) was over 100 µM, the TGI (M19-MEL melanoma) was over 100 µM and the TGI (XF 498 CNS) was over 100 µM. For the same molecule, the TGI (IGROV1 ovarian) was over 100 µM, the TGI (A549 NSCLC) was over 100 µM and the TGI (LOX IMVI melanoma) was over 100 µM. It also gave a TGI (KM12 colon) of over 100 µM, a TGI (MOLT-4 leukemia) of over 100 µM and a TGI (DMS 114 small cell lung) of over 100 µM. The TGI (HCT-116 colon) was over 100 µM, the TGI (RXF 393 renal) was over 100 µM and the TGI (MCF7 breast) was over 100 µM. It also gave a TGI (SK-MEL-28 melanoma) of over 100 µM, a TGI (P388 leukemia) of over 100 µM and a TGI (RPMI-8226 leukemia) of over 100 µM. For the same molecule, the TGI (HOP-92 NSCLC) was over 100 µM, the TGI (SF-268 CNS) was over 100 µM and the TGI (NCI-H522 lung) was over 100 µM. It also gave a TGI (UACC-62 melanoma) of over 100 µM, a TGI (U251 CNS) of over 100 µM and a TGI (HT29 colon) of over 100 µM. For the same molecule, the TGI (OVCAR-8 ovarian) was over 100 µM, the TGI (HCT-15 colon) was over 100 µM and the TGI (UACC-257 melanoma) was over 100 µM. It also gave a TGI (SNB-78 CNS) of over 100 µM, a TGI (SF-295 CNS) of over 100 µM and a TGI (EKVX NSCLC) of over 100 µM. For the same molecule, the TGI (SN12K1 renal) was over 100 µM, the TGI (SNB-19 CNS) was over 100 µM and the TGI (DLD-1 colon) was over 100 µM. For the same molecule, the TGI (SNB-75 CNS) was over 100 µM, the TGI (SW-620 colon) was over 100 µM and the TGI (SK-MEL-2 melanoma) was over 100 µM. It also gave a TGI (NCI-H23 lung) of over 100 µM, a TGI (OVCAR-3 ovarian) of over 100 µM and a TGI (SF-539 CNS) of over 100 µM. The TGI (SN12C renal) was over 100 µM, the TGI (CAKI-1 renal) was over 100 µM and the TGI (HCC-2998 colon) was over 100 µM. For the same molecule, the TGI (A498 renal) was over 100 µM, the TGI (HOP-18 NSCLC) was over 100 µM and the TGI (DMS 273 small cell lung) was over 100 µM. For the same molecule, the TGI (MALME-3M melanoma) was over 100 µM, the TGI (P388/ADR leukemia) was over 100 µM and the TGI (HOP-62 NSCLC) was over 100 µM. It also gave a TGI (CCRF-CEM leukemia) of over 100 µM, a TGI (COLO 205 colon) of over 100 µM and a TGI (OVCAR-5 ovarian) of over 100 µM. It also gave a TGI (KM20L2 colon) of over 100 µM, a TGI (NCI-H460 lung) of over 100 µM and a TGI (SK-OV-3 ovarian) of over 100 µM. For the same molecule, the TGI (NCI-H226 lung) was over 100 µM, the TGI (UO-31 renal) was over 100 µM and the TGI (K-562 leukemia) was over 100 µM.

With `CC(C)=CCc1c(C)cc2cc3c(c(O)c2c1O)C(O)=CC(=O)C3(CC=C(C)C)C/C=C(\C)CO` (stereo not drawn) the TGI (SK-MEL-5 melanoma) was 50.9 µM, the TGI (HL-60(TB) leukemia) was 51.3 µM and the TGI (NCI/ADR-RES ovarian) was 102 µM. For the same molecule, the TGI (OVCAR-4 ovarian) was 87 µM, the TGI (M19-MEL melanoma) was 79.9 µM and the TGI (XF 498 CNS) was 53.5 µM. It also gave a TGI (IGROV1 ovarian) of 79.6 µM, a TGI (A549 NSCLC) of 77 µM and a TGI (LOX IMVI melanoma) of 77.4 µM. The TGI (KM12 colon) was 81.7 µM, the TGI (MOLT-4 leukemia) was 75.7 µM and the TGI (DMS 114 small cell lung) was 82 µM. It also gave a TGI (HCT-116 colon) of 72.3 µM, a TGI (RXF 393 renal) of 63.4 µM and a TGI (MCF7 breast) of 84.3 µM. For the same molecule, the TGI (SK-MEL-28 melanoma) was 86.8 µM, the TGI (P388 leukemia) was 101 µM and the TGI (RPMI-8226 leukemia) was 67.6 µM. It also gave a TGI (HOP-92 NSCLC) of 75.6 µM, a TGI (SF-268 CNS) of 85.4 µM and a TGI (NCI-H522 lung) of 65.2 µM. It also gave a TGI (UACC-62 melanoma) of 67.5 µM, a TGI (U251 CNS) of 70 µM and a TGI (HT29 colon) of 81.4 µM. For the same molecule, the TGI (OVCAR-8 ovarian) was 76.8 µM, the TGI (HCT-15 colon) was 68 µM and the TGI (UACC-257 melanoma) was 82.6 µM. It also gave a TGI (SF-295 CNS) of 87.9 µM, a TGI (EKVX NSCLC) of 70.7 µM and a TGI (SN12K1 renal) of 62 µM. It also gave a TGI (SNB-19 CNS) of 86.2 µM, a TGI (DLD-1 colon) of 70.9 µM and a TGI (SNB-75 CNS) of 92.8 µM. It also gave a TGI (SW-620 colon) of 78.9 µM, a TGI (SK-MEL-2 melanoma) of 29.8 µM and a TGI (NCI-H23 lung) of 84.8 µM. The TGI (OVCAR-3 ovarian) was 76.3 µM, the TGI (SF-539 CNS) was 76.2 µM and the TGI (SN12C renal) was 76.8 µM. For the same molecule, the TGI (CAKI-1 renal) was 91.3 µM, the TGI (HCC-2998 colon) was 88.6 µM and the TGI (A498 renal) was 15.2 µM. For the same molecule, the TGI (HOP-18 NSCLC) was 35.3 µM, the TGI (DMS 273 small cell lung) was 109 µM and the TGI (MALME-3M melanoma) was 63.8 µM. For the same molecule, the TGI (P388/ADR leukemia) was 80 µM, the TGI (HOP-62 NSCLC) was 64.3 µM and the TGI (CCRF-CEM leukemia) was 60.1 µM. For the same molecule, the TGI (COLO 205 colon) was 80.1 µM, the TGI (OVCAR-5 ovarian) was 84.6 µM and the TGI (KM20L2 colon) was 76.6 µM. It also gave a TGI (NCI-H460 lung) of 98.9 µM, a TGI (SK-OV-3 ovarian) of 71.4 µM and a TGI (NCI-H226 lung) of 77 µM. It also gave a TGI (UO-31 renal) of 64.4 µM and a TGI (K-562 leukemia) of 90.9 µM.

— PubChem BioAssay (NCI)
